From publication PMC8953583, “The Longitudinal Dividing Bacterium Candidatus Thiosymbion Oneisti Has a Natural Temperature-Sensitive FtsZ Protein with Low GTPase Activity” (International Journal of Molecular Sciences, 2022) come the findings set out here.

The target in one data set is T1, FtsZ^EC (Escherichia coli, UniProt P0A9A6).
T1 construct: purified FtsZ; purification not described in main text
T1 sequence (P0A9A6 1-383): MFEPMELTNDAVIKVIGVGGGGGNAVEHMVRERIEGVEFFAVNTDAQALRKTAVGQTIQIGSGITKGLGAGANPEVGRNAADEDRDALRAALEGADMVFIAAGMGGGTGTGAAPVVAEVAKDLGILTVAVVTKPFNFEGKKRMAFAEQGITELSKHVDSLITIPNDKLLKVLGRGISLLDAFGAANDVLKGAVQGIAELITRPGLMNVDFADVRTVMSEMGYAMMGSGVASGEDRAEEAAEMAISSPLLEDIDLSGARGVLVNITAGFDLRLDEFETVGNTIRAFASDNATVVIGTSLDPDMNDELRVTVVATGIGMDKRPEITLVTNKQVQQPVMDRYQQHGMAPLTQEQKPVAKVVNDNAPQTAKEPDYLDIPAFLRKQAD
Description: GTPase assay (phosphate release). The format is biochemical. The settings on record: comparison with FtsZ^TO; conditions in supplement.

For another data set, the target named is T2, FtsZ^TO (Candidatus Thiosymbion oneisti, UniProt I3VI34, I207M).
T2 construct: untagged, expressed from pJW17 (pET11b) in E. coli BL21(DE3) pLysS; anion-exchange purified
T2 sequence (I3VI34 1-397 I207M): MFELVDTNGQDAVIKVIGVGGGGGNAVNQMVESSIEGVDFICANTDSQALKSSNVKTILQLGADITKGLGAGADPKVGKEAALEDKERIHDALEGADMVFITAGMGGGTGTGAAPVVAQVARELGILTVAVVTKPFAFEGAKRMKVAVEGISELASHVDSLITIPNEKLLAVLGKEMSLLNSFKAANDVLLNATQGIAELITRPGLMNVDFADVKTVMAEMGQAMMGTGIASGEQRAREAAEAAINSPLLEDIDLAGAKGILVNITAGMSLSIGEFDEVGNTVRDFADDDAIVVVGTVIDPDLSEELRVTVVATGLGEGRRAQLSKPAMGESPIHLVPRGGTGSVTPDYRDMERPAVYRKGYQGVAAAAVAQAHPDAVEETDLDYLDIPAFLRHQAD
As to the kind of experiment: Malachite green phosphate release GTPase assay. The format is biochemical. The settings on record: 1 mM GTP, HEPES buffer pH 7.5 or MES buffer pH 6.5, 50 mM KCl, 5 mM MgCl2, 28 °C; T7 loop mutant.

Substrate in data set [1]: Nc1nc2c(ncn2[C@@H]2O[C@H](COP(=O)(O)OP(=O)(O)OP(=O)(O)O)[C@@H](O)[C@H]2O)c(=O)[nH]1
Description: Malachite green phosphate release GTPase assay, Michaelis-Menten fit. The format is biochemical, Candidatus Thiosymbion oneisti. As to conditions: MES buffer pH 6.5, 50 mM KCl, 5 mM MgCl2, 28 °C, 5 μM FtsZ. The source says:
Malachite green phosphate release GTPase assay, Michaelis-Menten fit on FtsZ^TO

For `Nc1nc2c(ncn2[C@@H]2O[C@H](COP(=O)(O)OP(=O)(O)OP(=O)(O)O)[C@@H](O)[C@H]2O)c(=O)[nH]1` [GTP], the “GTPase assay (phosphate release)” value at FtsZ^EC was “FtsZ^TO showed a low GTPase activity compared to FtsZ^EC (Figure S4a)”. The “Malachite green phosphate release GTPase assay” value on FtsZ^TO was “Mutations I207M of the T7 loop and I273E of the H10 helix mutations reduced the GTPase”.

B1: FtsZ^TO (Candidatus Thiosymbion oneisti) (protein)
chain: MFELVDTNGQDAVIKVIGVGGGGGNAVNQMVESSIEGVDFICANTDSQALKSSNVKTILQLGADITKGLGAGADPKVGKEAALEDKERIHDALEGADMVFITAGMGGGTGTGAAPVVAQVARELGILTVAVVTKPFAFEGAKRMKVAVEGISELASHVDSLITIPNEKLLAVLGKEMSLLNSFKAANDVLLNATQGIAELITRPGLINVDFADVKTVMAEMGQAMMGTGIASGEQRAREAAEAAINSPLLEDIDLAGAKGILVNITAGMSLSIGEFDEVGNTVRDFADDDAIVVVGTVIDPDLSEELRVTVVATGLGEGRRAQLSKPAMGESPIHLVPRGGTGSVTPDYRDMERPAVYRKGYQGVAAAAVAQAHPDAVEETDLDYLDIPAFLRHQAD
notes: untagged, expressed from pJW17 (pET11b) in E. coli BL21(DE3) pLysS; anion-exchange purified
Usually Km stands for the concentration of substrate that gives half-maximal velocity. As a reminder, the kcat is the number of substrate molecules converted per active site and unit of time at saturation. As for B1, in data set [1], the Km is 550 ± 110 µM and the turnover number (kcat) turned out to be 0.00817 ± 0.000833 s⁻¹.
